The values below come from patent US6900194B1, “Use of substituted 4-biarylbutyric and 5-biarylpentanoic acid derivatives as matrix metalloprotease inhibitors for the treatment of respiratory diseases” (Bayer Aktiengesellschaft, priority 1998, dated 2005).

Assay type in all cases: biochemical
Experiment [1] has as its target T1, MMP-9 (Gelatinase B) (Homo sapiens, UniProt P14780).
T1 construct: polymorphonuclear leukocytes (PMN) preparations are isolated as described above from 3 or more units of freshly drawn whole blood; from tissue; host or cells: polymorphonuclear leukocytes from whole blood, stimulated with PMA; supernatant purified
Description: P218 quenched fluorescence assay, MMP-9. The conditions noted are these: read-out: Potency Ki vs. MMP-9. From the text:
(§1) P218 Quenched Fluorescence Assay for MMP Inhibition:
(§2) This assay is adapted from the one described by Knight et al., FEBS Letters, 296, 263-266 (1992) for MMP-3 and a related substrate. The rate of hydrolysis of the synthetic substrate H-MCA-Pro-Lys-Pro-Leu-Ala-Leu-DPA-Ala-Arg-NH2 (P218) by the respective MMPs is monitored fluorometrically, using an excitation wavelength of 340 nm and an emission wavelength of 395 nm, in the presence or absence of the test compounds. The substrate is made up initially in 100% DMSO to a concentration of 1×10^−2 M, then diluted in assay buffer to a final concentration of 20 μM. […] The total assay volume in a 96 well microtitre plate is 150 μl, Cleavage of the substrate between the Leu-Ala residues allows the fluorescence of the MCA group to be detected on a fluorometer (Cytofluor II) following excitation at 340 nm and emission at 395 nm. Change in fluorescence is continually monitored for a 40 min period.
(§3) The Ki's are calculated using the method described by Williams and Morrison, Methods in Enzymology, 63, 437-467 (1979) to measure Ki apparent for tight binding inhibitors, and is summarised as follows: [I]0/(1−vi/v0)=Ki apparent ×vi/v0+[E]0 [I]0 and [E]0 are inhibitor and enzyme concentrations, and vi/v0 are reaction velocities with/without inhibitor. […]
(§4) IC50's are determined at each enzyme concentration using Xlfit software. […]

The target in experiment [2] is T2, MMP-7 (Matrilysin) (Homo sapiens, UniProt P09237).
T2 construct: Catalytic domain expressed in E. coli using the pET 14 vector, provided by Dr Steve Shapiro; host or cells: E. coli
T2 sequence (P09237 95-267): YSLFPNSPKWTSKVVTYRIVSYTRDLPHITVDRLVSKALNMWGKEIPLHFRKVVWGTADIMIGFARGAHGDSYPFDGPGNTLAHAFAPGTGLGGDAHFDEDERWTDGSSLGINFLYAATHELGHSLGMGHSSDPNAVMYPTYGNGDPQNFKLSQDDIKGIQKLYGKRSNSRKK
Description: P218 quenched fluorescence assay, MMP-7.
From the text: as §1, §2, §3, §4

Experiment [3] addresses MMP-13 (Human Collagenase 3) (Homo sapiens, UniProt P45452). The experiment is described as follows: P218 quenched fluorescence assay, MMP-13 (human).
From the text: as §1, §2, §3, §4

Experiment [4] concerns the target T3, MMP-8 (Neutrophil Collagenase) (Homo sapiens, UniProt P22894).
T3 construct: Active recombinant truncated form (met^80-gly^242) was obtained according to the protocol of Knauper; made in house
The experiment is described as follows: P218 quenched fluorescence assay, MMP-8.
From the text: as §1, §2, §3, §4

T3 sequence (P22894 100-262): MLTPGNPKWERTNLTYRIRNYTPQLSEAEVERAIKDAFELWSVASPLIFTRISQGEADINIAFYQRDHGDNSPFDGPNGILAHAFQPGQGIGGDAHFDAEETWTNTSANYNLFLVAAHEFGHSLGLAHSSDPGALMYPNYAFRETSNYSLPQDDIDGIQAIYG
T1 sequence (P14780 94-707): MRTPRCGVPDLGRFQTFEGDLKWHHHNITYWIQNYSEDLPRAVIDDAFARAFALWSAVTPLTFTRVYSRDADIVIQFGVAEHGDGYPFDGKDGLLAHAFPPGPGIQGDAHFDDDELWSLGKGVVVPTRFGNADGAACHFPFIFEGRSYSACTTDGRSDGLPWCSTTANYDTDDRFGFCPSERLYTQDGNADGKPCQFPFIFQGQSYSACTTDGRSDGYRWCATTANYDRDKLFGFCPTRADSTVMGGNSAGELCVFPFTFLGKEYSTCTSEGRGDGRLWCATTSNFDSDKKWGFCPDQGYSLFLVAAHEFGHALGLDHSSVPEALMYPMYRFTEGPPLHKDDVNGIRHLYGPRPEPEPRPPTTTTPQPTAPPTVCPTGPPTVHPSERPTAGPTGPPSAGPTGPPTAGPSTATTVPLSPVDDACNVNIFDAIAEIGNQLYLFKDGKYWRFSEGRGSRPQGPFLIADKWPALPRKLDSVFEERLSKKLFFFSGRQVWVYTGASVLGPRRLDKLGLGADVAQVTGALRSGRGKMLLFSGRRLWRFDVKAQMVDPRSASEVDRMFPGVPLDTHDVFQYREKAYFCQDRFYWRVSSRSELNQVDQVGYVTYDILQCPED

In the case of `O=C(CC(CCN1C(=O)c2ccccc2C1=O)C(=O)O)c1ccc(-c2ccc(Cl)cc2)cc1` (single isomer, unassigned; (+)) [Example 4, (+)-4-(4′-Chloro[1,1′-biphenyl]4-yl)-2-[2-(1,3-dioxo-1,3-dihydro-2H-isoindol-2-yl)ethyl]-4-oxobutanoic acid], the Ki (usually the dissociation constant of the complex between target and ligand, obtained from inhibition or displacement) was 0.7 nM in experiment [1], > 3000 nM in experiment [2] (read-out: Potency Ki vs. MMP-7), 5.6 nM in experiment [3] (read-out: Potency Ki vs. MMP-13) and 7.5 nM in experiment [4] (read-out: Potency Ki vs. MMP-8).
On to `CCOc1ccc(-c2ccc(C(=O)CC(CCN3C(=O)c4ccccc4C3=O)C(=O)O)cc2)cc1` (single isomer, unassigned; (+)) [Example 2, (+)-2-[2-(1,3-Dioxo-1,3-dihydro-2H-isoindol-2-yl)ethyl]-4-(4′-ethoxy[1,1′-biphenyl]-4-yl)-4-oxobutanoic acid], for which, in experiment [1], the Ki was determined as 1.2 nM. Besides, in experiment [2] (at 30 nM, read-out: % inh. of MMP-7), the inhibition at 0.03 µM was found to be 38%. The half-inhibitory concentration (IC50) (as a rule, the concentration that inhibits the measured activity by half) in experiment [3] (read-out: IC50 vs. MMP-13 (value marked *)) worked out at 70 nM; in experiment [4] (read-out: IC50 vs. MMP-8 (value marked *)) it was 21.6 nM.
